Values belong to the molecule of their own block, whether it stands above or below them.
Experiments:
K562 cancer cells [1] = tested on: K562 cancer cells; set-up: method as in PMID 34043358; conditions: cited from earlier work
K562 cancer cells [2] = assay: PBMC cytotoxicity against K562 cancer cells; assay type: cell-based; conditions: 1 μM + LPS 1 μg/mL or IFN-γ 200 U/mL, 18 h; 40:1, 4 h
Procedure: In addition, we also investigated the ability of 40, both alone and in combination with LPS and IFN-γ, to induce direct and nonspecific cytolytic activity of PBMCs against cancer cells. For this purpose, we used a functional cytotoxicity assay based on the coincubation of preactivated PBMCs and fluorescently labeled K562 cancer cells.[33] Among the heterogeneous subpopulations of PBMCs, natural killer (NK) cells and, to a lesser extent, monocytes represent the main effector cell types in this assay. NK cells play an essential role in tumor and viral immunosurveillance, both through direct cytolytic destruction of aberrant cells and by facilitating the recruitment and activation of other immune cells through the secretion of cytokines.[34] In addition to their well-established role in cancer immunotherapy, NK cells thus also provide an attractive target in the development of vaccine adjuvants, particularly when Th1 cellular immune responses are preferred.[35] Other cell populations, however, may contribute to the magnitude of NK cell-mediated responses via cytokine secretion. To account for the contribution of these accessory cells and to more accurately represent in vivo conditions, the entire PBMC population was used instead of isolated NK cells.
Figure 3 2 and 40 synergize with LPS and IFN-γ to induce the cytotoxicity of PBMCs against K562 cancer cells. Following 18 h of stimulation of PBMCs with 2 (1 μM) or 40 (1 μM) in the presence or absence of LPS (1 μg/mL) and IFN-γ (200 U/mL) or the corresponding vehicle (0.1% DMSO; NT), K562 cells were added in a 40:1 effector to target cell ratio. Cytotoxicity was determined after 4 h of coincubation. IL-2 (200 U/mL) was used as the positive control. Data are shown as relative activities to vehicle-treated control (0.1% DMSO) and are the means ± SEMs of duplicates of two independent experiments. Statistical significance was determined by one-way ANOVA followed by Dunnet’s multiple-comparisons test; **, p < 0.01, ***, p < 0.001. […]
4.8 Peripheral blood mononuclear cell cytotoxicity
The PBMC cytotoxicity assays using K562 cells were performed as described previously, with some modifications.2 PBMCs were seeded (400,000 cells/well) in duplicates in 96 -well U-bottom plates and treated with 2 (1 µM) or 40 (1 µM), in the presence or absence of LPS (1 µg/mL) or IFN-γ (200 U/mL), IL-2 (200 U/mL), or the corresponding vehicle (0.1% DMSO) for 18 h. K562 were stained with carboxyfluorescein succinimidyl ester (CFSE, Invitrogen, Carlsbad, CA, USA), washed twice with complete medium, and added (10,000 cells/well) to the pre-treated PBMCs for a final effector cell to target tumor cell ratio of 40:1. After a 4 h coincubation (37 °C, 5% CO2), cells were stained with Sytox Blue dead cell stain (Invitrogen) and analyzed using an Attune NxT flow cytometer (Thermo Fisher Scientific, Waltham, MA, USA) and FlowJo software (Tree Star, Inc., Ashland, OR, USA). Cells that were positive for both CFSE and Sytox Blue were defined as dead K562 cells. PBMCs alone and CFSE-labeled K562 cells alone were also treated with the compounds at the same concentrations and stained with Sytox Blue to exclude any direct cytotoxicity of the compounds towards the PBMCs and cancer cells.
4.9 Cytokine release from peripheral blood mononuclear cells […]

PBMCs = assay: Cytokine release from peripheral blood mononuclear cells; assay type: cell-based; conditions: human PBMCs, 18 h; NOD2 agonists 1 μM; LPS 10 ng/mL; IFN-γ 200 U/mL
Description: Encouraged by the potent NOD2 activity of 40, we preliminarily evaluated its immunostimulatory potential in human primary peripheral blood mononuclear cells (PBMCs). Specifically, we first investigated the ability of 40 to induce cytokine production in PBMCs. While activation of NOD2 alone is sufficient to elicit cytokine responses, these responses are usually of low intensity. However, NOD2 agonists can act in synergy with ligands of other innate immune receptors and proinflammatory cytokines to induce considerably stronger responses. We were particularly intrigued by the synergistic interactions between NOD2, TLR4, and IFN-γ. The synergy between NOD2 agonists and TLR4 agonists in terms of cytokine secretion, including IFN-γ, is well-established.[29],[30] Similarly, IFN-γ has previously been reported to augment the MDP-mediated activation and cytokine production by dendritic cells and macrophages.[31],[32]
Figure 2 Synergistic effects of 40 with LPS and IFN-γ on induction of cytokine production from PBMCs. Cytokine concentrations were measured after 18 h of stimulation with NOD2 agonists (1 μM) in the presence or absence of LPS (10 ng/mL) and IFN-γ (200 U/mL) or the corresponding vehicle (0.1% DMSO; NT). Data are expressed as mean ± SEM of three independent experiments. Statistical significance was determined by one-way ANOVA followed by Bonferroni’s multiple-comparisons test; *, p < 0.05, **, p < 0.01, ***, p < 0.001 versus vehicle-treated control; ##, p < 0.01, ###, p < 0.001 versus 40 or LPS alone.
Figure S5. The effect of 40 on the production of cytokines from human PBMCs is NOD2 -dependent. PBMCs were pre-incubated for 1 h in the presence or absence of the NOD2 antagonist SG84 (10 µM), before the addition of 40 (1 µM). Cytokine concentrations in supernatants were measured after 18 h stimulation.
Data are expressed as mean s ± SEM of 3 independent experiments. Statistical significance was determined by one-way ANOVA followed by Bonferroni’s multiple comparisons test; **, p < 0.01, ***, p < 0.001. […]
4.9 Cytokine release from peripheral blood mononuclear cells
Peripheral blood mononuclear cells were seeded ( 500,000 cells/well) in 24-well plates in 500 µL growth medium and treated with MDP (1 µM), 2 (1 µM), or 40 (1 µM), in the presence or absence of LPS (10 ng/mL) or IFN-γ (200 U/mL), or the corresponding vehicle (0.1% DMSO). In some wells, PBMCs were pre-treated for 1 h with the NOD2 antagonist SG84 (10 µM), before the addition of 40 (1 µM). Cell-free supernatants were collected after 18 h of incubation (37 °C, 5% CO2) and stored at -80 °C until tested.
Cytokine production was determined with BD Cytometric Bead Array human inflammatory cytokines kit (BD Bioscience) on an Attune NxT flow cytometer (Thermo Fisher Scientific, Waltham, MA, USA). Standard curves were generated using recombinant cytokines contained in the kit. The data were analyzed using the FlowJo (Tree Star, Inc., Ashland, OR, USA) and Prism (GraphPad, San Diego, CA, USA) software.

human NOD2 = molecular target: T1, human NOD2 (Homo sapiens, UniProt Q9HC29); assay: HEK-Blue NOD2 NF-κB SEAP reporter assay (NOD2 agonistic activity); assay type: cell-based
T1 construct: host or cells: HEK-Blue NOD2 cells (derived from HEK293)
Procedure: The synthesized desmuramylpeptides were evaluated for their dose-dependent NOD2 activity using the commercially available HEK-Blue NOD2 reporter cell line. This cell line is derived from HEK293 cells by cotransfection of human NOD2 and an NF-κB-inducible secreted embryonic alkaline phosphatase (SEAP). Activation of NOD2 and subsequently of NF-κB leads to the expression and secretion of SEAP, the level of which can be quantified colorimetrically. […]
two passages, 200 µg/mL Zeocin (Invivogen) was added to the medium every other passage to maintain selection pressure. The cells were incubated in a humidified atmosphere at 37 °C and 5% CO 2. […]
Aldrich), and 100 µg/mL streptomycin (Sigma -Aldrich).
The tested compounds were dissolved in DMSO and further di luted in culture medium to the desired final concentrations, such that the final DMSO concentration never exceeded 0.1%. […]
4.6 NOD1/NOD2-NF-kB reporter assay
HEK-Blue NOD2 or NOD1 cells were seeded (25,000 cells/well) in 96 -well plates in 100 µL HEK-Blue detection medium (Invivogen, San Diego, CA, USA) and treated with compounds ( 2 µM for fixed […]
the corresponding vehicle (0.1% DMSO). After 18 h of incubation (37 °C, 5% CO2), secreted embryonic alkaline phosphatase (SEAP) activity was determined spectrophotometrically as absorbance at 630 nm (BioTek Synergy microplate reader; Winooski, VT, USA). EC50 values were calculated using Prism software (version 9; GraphPad Software, CA, USA). The experiments were run in duplicates and repeated as at least three independent biological replicates. […]

[3] = HEK-Blue NOD2 cells, 18 h, means ± SEMs of at least three independent experiments, 8 or 16 concentrations (0.1 nM to 20 μM)

T1 sequence (Q9HC29 whole entry): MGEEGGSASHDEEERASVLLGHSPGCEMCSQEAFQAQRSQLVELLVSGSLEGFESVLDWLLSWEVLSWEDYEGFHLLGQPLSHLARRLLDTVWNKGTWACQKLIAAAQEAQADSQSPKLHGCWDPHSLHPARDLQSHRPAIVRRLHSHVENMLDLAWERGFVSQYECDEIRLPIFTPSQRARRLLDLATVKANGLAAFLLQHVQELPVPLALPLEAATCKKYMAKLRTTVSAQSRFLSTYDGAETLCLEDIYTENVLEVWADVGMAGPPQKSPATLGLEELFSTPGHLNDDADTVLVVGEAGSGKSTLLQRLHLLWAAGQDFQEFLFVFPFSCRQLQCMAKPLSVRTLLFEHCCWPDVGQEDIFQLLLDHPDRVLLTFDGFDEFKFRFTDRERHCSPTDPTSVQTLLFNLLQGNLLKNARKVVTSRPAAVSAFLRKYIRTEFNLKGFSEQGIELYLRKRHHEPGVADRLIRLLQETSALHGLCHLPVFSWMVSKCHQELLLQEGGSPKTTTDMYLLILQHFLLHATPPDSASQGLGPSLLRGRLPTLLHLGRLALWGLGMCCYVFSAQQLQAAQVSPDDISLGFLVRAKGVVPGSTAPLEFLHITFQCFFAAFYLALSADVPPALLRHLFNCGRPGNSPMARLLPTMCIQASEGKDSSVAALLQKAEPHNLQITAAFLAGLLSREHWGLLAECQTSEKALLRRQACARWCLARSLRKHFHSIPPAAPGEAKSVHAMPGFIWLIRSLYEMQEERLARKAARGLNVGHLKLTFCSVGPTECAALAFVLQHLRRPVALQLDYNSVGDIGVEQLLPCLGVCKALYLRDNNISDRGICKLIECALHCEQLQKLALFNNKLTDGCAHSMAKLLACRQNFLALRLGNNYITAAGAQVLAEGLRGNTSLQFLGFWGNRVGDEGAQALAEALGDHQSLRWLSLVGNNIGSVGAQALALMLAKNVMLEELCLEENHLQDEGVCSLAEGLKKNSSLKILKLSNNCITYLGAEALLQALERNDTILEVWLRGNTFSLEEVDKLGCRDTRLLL

Molecule: CCOC(=O)CC[C@@H](NC(=O)[C@@H](NC(=O)CNC(=O)/C=C/c1ccc(O)c(OC)c1)C(C)C)C(=O)OCC [Compound 1]
induction of cytotoxic activity of PBMCs (previous observations) (K562 cancer cells [1]): failed to induce

Molecule: COc1cc(/C=C/C(=O)NCC(=O)N[C@H](C(=O)N[C@H](CCC(=O)OC2CCCC2)C(=O)OC2CCCC2)C(C)C)ccc1O [Compound 2]
induction of cytotoxic activity of PBMCs (previous observations) (K562 cancer cells [1]): failed to induce
LPS- and IFN-γ-induced cytotoxic activity of PBMCs against K562, costimulation (K562 cancer cells [2]): significantly enhanced
production of IL-1β, IL-6, IL-8 and TNF-α, stimulant alone (PBMCs): modest production

Molecule: CCOC(=O)CC[C@@H](NC(=O)[C@@H](NC(=O)CNC(=O)c1cc2ccc(Br)cc2o1)C(C)C)C(=O)OCC [Compound 31]
EC50 (human NOD2; HEK-Blue NOD2 cells): 1930 nM
EC50 (human NOD2; [3]): 1930 ± 168 nM

Molecule: CCOC(=O)CC[C@@H](NC(=O)[C@@H](NC(=O)CNC(=O)c1cc2cc([N+](=O)[O-])ccc2o1)C(C)C)C(=O)OCC [Compound 33]
EC50 (human NOD2; [3]): 760 ± 84 nM

Molecule: CCOC(=O)CC[C@@H](NC(=O)[C@@H](NC(=O)CNC(=O)c1nc(-c2ccccc2)oc1C)C(C)C)C(=O)OCC [Compound 34]
EC50 (human NOD2; HEK-Blue NOD2 cells): 2620 nM
EC50 (human NOD2; [3]): 2620 ± 209 nM

Molecule: COc1cc(/C=C/C(=O)NCC(=O)N[C@H](C(=O)N[C@H](CCC(=O)OC2CCCC2)C(=O)OC2CCCC2)C(C)C)ccc1OC(=O)CC12CC3CC(CC(C3)C1)C2 [Compound 41]
EC50 (human NOD2; [3]): 44 ± 9 nM

Molecule: CC(=O)NC1C(O)OC(CO)C(O)C1OC(C)C(=O)NC(C)C(=O)NC(CCC(=O)O)C(N)=O (stereo not drawn) [MDP, muramyl dipeptide, reference compound]
EC50 (human NOD2; [3]): 203 ± 12 nM
production of IL-1β, IL-6, IL-8 and TNF-α, stimulant alone (PBMCs): modest production

Molecule: lipopolysaccharide [LPS, reference compound]
production of IL-1β, IL-6, IL-8 and TNF-α, stimulant alone (PBMCs): strong increase

B1: interferon-γ (protein, UniProt P01579 24-161, looked up)
Interferon gamma: QDPYVKEAENLKKYFNAGHSDVADNGTLFLGILKNWKEESDRKIMQSQIVSFYFKLFKNFKDDQSIQKSVETIKEDMNVKFFNSNKKKRDDFEKLTNYSVTDLNVQRKAIHELIQVMAELSPAAKTGKRKRSQMLFRG
notes: proinflammatory cytokine used as costimulus
production of IL-1β, IL-6, IL-8 and TNF-α, stimulant alone (PBMCs): negligible cytokine secretion

Second part, the molecule after the results:

NOD2 agonistic activity at the highest concentration tested (human NOD2; 20 μM, HEK-Blue NOD2 cells): only minor NOD2 agonistic activity
EC50 (human NOD2; [3]): > 10000 nM
Molecule: CCOC(=O)CC[C@@H](NC(=O)[C@H](Cc1ccncc1)NC(=O)CNC(=O)/C=C/c1ccc(O)c(OC)c1)C(=O)OCC [Compound 15]

EC50 (human NOD2; [3]): > 10000 nM
Molecule: CCOC(=O)CC[C@@H](NC(=O)[C@@H](NC(=O)CNC(=O)/C=C/c1ccc(O)c(OC)c1)C12CC3CC(CC(C3)C1)C2)C(=O)OCC [Compound 16]

EC50 (human NOD2; [3]): 420 ± 41 nM
Molecule: CCOC(=O)CC[C@@H](NC(=O)[C@H](CCc1ccccc1)NC(=O)CNC(=O)/C=C/c1ccc(O)c(OC)c1)C(=O)OCC [Compound 17]

EC50 (human NOD2; HEK-Blue NOD2 cells): 2670 nM
EC50 (human NOD2; [3]): 2670 ± 357 nM
reduction in potency relative to 1 (human NOD2; NOD2 EC50 versus compound 1): 30 fold
Molecule: CCOC(=O)CC[C@@H](NC(=O)[C@@H](NC(=O)CNC(=O)/C=C/c1ccc2c(c1)OCO2)C(C)C)C(=O)OCC [Compound 29]

EC50 (human NOD2; HEK-Blue NOD2 cells): 4340 nM
EC50 (human NOD2; [3]): 4340 ± 468 nM
Molecule: CCOC(=O)CC[C@@H](NC(=O)[C@@H](NC(=O)CNC(=O)c1cc2ccccc2o1)C(C)C)C(=O)OCC [Compound 30]

EC50 (human NOD2; [3]): 316 ± 30 nM
Molecule: CCOC(=O)CC[C@@H](NC(=O)[C@@H](NC(=O)CNC(=O)c1cc2cc(Br)ccc2o1)C(C)C)C(=O)OCC [Compound 32]
